# Source: patent US6583106B2, “Monohydric alcohol derived urethanes and their use in cosmetic formulations” (Alzo International, Inc., priority 1997, dated 2003)
# Assay: Urethane stability study (hydroxyl value after heat/reflux and pH variation)
# Type: physicochemical
# Details: before treatment; A.O.C.S. hydroxyl value method
# Protocol: (§1) The following stability study was conducted to determine the structural stability of dimeric urethane compounds according to the present invention compared to mono- and diesters under conditions of pH and thermal variation. Because the decomposition products of the mono- and diesters are alcohol and acid, the degree of decomposition may be accurately determined by measuring the acid value. The measurable decomposition product of the urethane compound is alcohol, which is accurately measured by determining the hydroxyl value.
# IV. Procedure for Urethane Stability
# The following steps were performed on each urethane sample:
# (1) Run hydroxyl value test.
# (2) Follow steps 2-8 for mono- and diester (above).
# (3) Run hydroxyl value test on solution in beaker A.
# (4) Perform step 10, from above.
# (5) Run hydroxyl value test on solution in Beaker B and Beaker C.
# Under conditions of this study, that is,
# “A”: Product in alcoholic/water solution, heat
# “B”: Product in alcoholic/water solution, heat, pH=2.5-3.5
# “C”: Product in alcoholic/water solution, heat, pH=13-14
row,Compound,HYDROXYL V INITIAL [mg KOH/g]
1,Isostearyl alcohol dimer with IPDI [Monoderm I-18],5.3
2,Octyl dodecanol dimer with IPDI [Monoderm I-20],16.1
3,"CCCCC(CC)COC(=O)NCC1(C)CC(NC(=O)OCC(CC)CCCC)CC(C)(C)C1 (stereo not drawn) [Monoderm I-8, 2-ethyl hexanol dimer with IPDI]",10.3
4,Isocetyl alcohol dimer with IPDI [Monoderm I-16],7.3

# Assay: Mono- and diester stability study (acid value after heat/reflux and pH variation)
# Type: physicochemical
# Details: before treatment; A.O.C.S. T.M. #Cd 3a-63
# Protocol: as §1
# III. Procedure for Determining Mono- or Diester Stability
# The following steps were performed on each ester sample:
# (2) Into three ground glass Erlenmeyer flasks, weigh a 20 g sample of the ester.
# (3) Into each flask, pipette 50 ml of a neutralized (to phenolpthalein end point) Solution of 70% Isopropanol in water. Boiling stones are added.
# (4) Connect flask A to a 4-5 ft. Reflux condenser and heat so that it refluxes 1 ft. High (to approximately 80-90° C.). After connecting flasks A, B and C, proceed to step (7).
# (5) Add 10% Aq. Hcl solution to adjust pH of solution in flask B to pH=2.5-3.5. See step (4).
# (6) Add 20% Aq. KOH Solution to adjust pH of solution in Flask C to pH=13-14. See step (4).
# (8) For each flash, A, B and C, disconnect condenser. Pour Alcoholic solution into wide diameter beaker (A, B and C). Add spin bar. […]
row,Compound,ACID V INITIAL [mg KOH/g]
1,"CC(C)OC(=O)CCCCC(=O)OC(C)C [DIA, Diisopropyl adipate]",0.26
2,Diisopropyl dilinoleate [DID],0.32
